Measured values published in patent US20230406837A1, “SULFAMATE MODULATORS OF PIN1 ACTIVITY AND USES THEREOF” (Yeda Research and Development Co., Ltd., priority 2022, published 2023).
“Also recorded” adds a separate entry of the source. Each block holds one molecule with its values, some of them ahead of it.

How the values were obtained:
[1] = GSH consumption (reactivity) assay by LC/MS; details: for reactivity to GSH relative to chloroacetamide (1a): 5 mM GSH, 200 μM electrophile, pH 8, 14° C.; for covalent bond formation with GSH: assay conditions or temperatures up to 37° C. for 24 h
Pin1 [2] = biological target: T1, Pin1 (Homo sapiens, UniProt Q13526); experiment: In-vitro Pin1 covalent labeling by intact protein LC/MS; assay type: binding; set-up: The catalytic domain of Pin1 (2 μM) in 20 mM Tris, 75 mM NaCl, pH 7.5 was incubated with 2 μM Sulfamate; made in house; details: 2 μM compound, 2 μM Pin1, pH 7.5, 1 h, 25° C.
Experimental: Pin1 was expressed and purified as previously reported^38. The catalytic domain of Pin1 (2 μM) in 20 mM Tris, 75 mM NaCl, pH 7.5 was incubated with 2 μM Sulfamate (4a-4g) for 1 h at 25° C.
The reaction mixtures, at room temperature for various times, were injected into the LC/MS. For data analysis, the raw spectra were deconvoluted using a 20000:40000 Da (For Pin1, 10000:30000) window and 1 Da resolution. The labeling percentage for a compound was determined as the labeling of a specific compound (alone or together with other compounds) divided by the overall detected protein species.
Initially, these compounds (4a-4g; 2 μM) were incubated with Pin1 (2 μM; […] Tris buffer; pH 7.5, 1 h; 25° C.) to check covalent labeling by intact protein MS (FIG. 11B,C; FIG. 10).
Target sequence in this assay (Q13526 52-163 limits assumed): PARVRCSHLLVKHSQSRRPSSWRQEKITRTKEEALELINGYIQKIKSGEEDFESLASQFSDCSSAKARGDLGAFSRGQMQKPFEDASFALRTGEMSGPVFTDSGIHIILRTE

[3] = DTNB thiol reactivity assay; assay type: physicochemical; details: 200 μM compound, pH 7.4, 37° C.
Experimental: The compound 5,5′-dithio-bis(2-nitrobenzoic acid) (DTNB; 50 μM) was incubated with 200 μM tris(2-carboxyethyl)phosphine (TCEP) in 20 mM sodium phosphate buffer pH 7.4 and 150 mM NaCl for 5 min at room temperature, to obtain TNB^−2. […] UV absorbance was acquired every 15 min for 7 h. The assay was performed in a 384-well plate using a Tecan Spark 10M plate reader. […] Compounds were measured in triplicate. The data were fitted to a second-order reaction equation such that the rate constant (K) is the slope of ln([A][B0]/[B][A0]), where [A0] and [B0] are the initial concentrations of the compound (200 μM) and TNB^−2 (100 μM), respectively, and [A] and [B] are the remaining concentrations as a function of time as deduced from spectrometric measurements. Linear regression using Prism was performed to fit the rate against the first 7 h of measurements.

Mino cells = experiment: In situ proteomic labeling with alkyne probes, in-gel fluorescence; assay type: cell-based; details: 2 h
Source text: FIGS. 5A-5C: α-sulfamate acetamide 1a-aj, and 2a-2c can show up to two orders of magnitude less reactivity towards GSH than chloroacetamide. FIG. 5A: Chemical structures of model α-sulfamate/sulfonate/sulfone acetamides. FIG. 5B: Half-life (t1/2) of the model compounds (1a-1j) assessed by GSH consumption assay via LC/MS (FIG. 4B). FIG. 5C: In situ proteomic labeling with alkyne probes (2a-2c). […] A band that is selectively detected only by compound 2a is indicated by *.
Sulfamate acetamides show attenuated and tunable proteomic reactivity. To assess proteomic selectivity in cells, two sulfamate acetamides (2a and 2b) and a chloroacetamide (2c) with an alkyne functionality have been synthesized (FIG. 3 and FIG. 4A). Mino cells were treated for two hours with either DMSO or 2a-c. Then, the cells were lysed, labeled the alkynes via copper-catalyzed “click chemistry” (CuAAC) with TAMRA-azide, and imaged the adducts via in-gel fluorescence (FIG. 4C). Similar to their reactivity pattern in the GSH reactivity assay, these compounds labeled various amounts of proteins under cellular conditions.

[4] = Buffer stability assay (hydrolysis by LC/MS); assay type: physicochemical; details: for hydrolysis in PBS buffer (FIG. 13): 100 μM, pH 8, 37° C. for four days; for hydrolysis in PBS buffer: pH 8, 37° C., after 2 days
Experimental: FIG. 8: Buffer stability of model compounds. […] The percentage of hydrolysis was quantified using LC/MS at a wavelength of 220 nm.
FIG. 13: Sulfonate and sulfamate compounds. […] For compounds Sulfopin, 4a, and 4b, spectra at 220 nm were taken to show the peaks. […] “#” refers to hydrolysis product “*” refers to unidentified peak.
Reaction mixtures were kept at 37° C. with shaking.

Pin1 [5] = biological target: T1, Pin1; experiment: Kinetics of Pin1 binding (KI and Kinact) by LC-MS; set-up: made in house; kinact: unit not given here; details: for Ki: read-out: K1 value (KI)
Source text: The reaction was monitored by LC-MS. FIGS. 17B and 17D. The rate constants as extrapolated from FIGS. 17A and 17C, respectively, as a function of the concentration of sulfopin and 4d.
Target sequence in this assay (Q13526 whole entry, the tested form may be a part): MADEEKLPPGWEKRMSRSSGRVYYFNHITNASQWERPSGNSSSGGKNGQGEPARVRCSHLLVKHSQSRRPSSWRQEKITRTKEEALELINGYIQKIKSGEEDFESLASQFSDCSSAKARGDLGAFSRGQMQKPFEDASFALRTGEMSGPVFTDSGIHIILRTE

Pin1 Cys113 = biological target: T2, Pin1 Cys113 (Homo sapiens, UniProt Q13526); experiment: Competitive isoTOP-ABPP in PATU-8988T cells; assay type: cell-based; details: for peptides labeled with an H/L ratio >2: out of about 3,000 cysteines identified
T2 construct: endogenous in cells
Experimental: FIGS. 11A-11E: Sulfamate acetamides as potent and selective Pin1 inhibitors. FIG. 11A. Chemical structures of the sulfonate and sulfamate compounds (4a-4g). FIG. 11B. Deconvoluted LC/MS spectrum for Pin1 (2 μM) incubated with 4 g at pH 7.5, 25° C., 1 h. The adduct mass corresponds to a labeling event in which the sulfamate group was released. FIG. 11C. Percent of Pin1 labeling (2 μM) with the probes (4a-4g; 2 μM; y-axis) compared to their intrinsic thiol reactivity as assessed by their rate of reaction in a DTNB assay (x-axis). FIG. 11D. Cellular engagement of the Sulfamates. OCI-AML2 cells were treated with DMSO, Sulfopin or sulfamate compounds (4c, 4d, 4g) at 0.5 and 2.5 μM concentration for 4 hours. Lysates were then incubated with a Sulfopin desthiobiotin (DTB) probe (1 μM), pulled down using streptavidin beads before running a western blot against Pin1. FIG. 11E. IsoDTB ABPP experiment with sulfopin and sulfamate compound 4d. […] The labeled peptides were pull-down with streptavidin beads and analysed by LC/MS/MS (similar protocol to BTK, see FIG. 521; n=4). Proteins in the box have a heavy to light (H/L) ratio ≥2. Only peptides detected in three out of four repetitions are presented.

[6] = Metabolic stability in liver microsomes; assay type: in vitro ADME; details: LC/MS/MS
Experimental: FIG. 14: Sulfamates compounds show high metabolic stability. Compounds (Sulfopin, 4d, 4e, and 4g) were incubated in liver microsomes and injected to LC/MS/MS at indicated time points. The peak intensities of the compounds were measured in UV spectra.

[7] = Pin1 0.5 μM, 100 mM Tris buffer pH 7.4, 14° C.

T2 sequence (Q13526 whole entry): as the sequence (Q13526 whole entry, the tested form may be a part) above

SMILES: CNS(=O)(=O)OCC(=O)NCc1ccccc1 [Compound 1d, 2-(benzylamino)-2-oxoethyl Methylsulfamate]
reactivity to GSH relative to chloroacetamide (1a) [1]: an order of magnitude less reactivity

SMILES: CS(=O)(=O)CC(=O)NCc1ccccc1 [Compound 1i, N-benzyl-2-(methylsulfonyl)acetamide]
covalent bond formation with GSH [1]: did not form a covalent bond with GSH

SMILES: O=C(CS(=O)(=O)c1ccccc1)NCc1ccccc1 [Compound 1j, N-benzyl-2-(phenylsulfonyl)acetamide]
covalent bond formation with GSH [1]: did not form a covalent bond with GSH

SMILES: C#Cc1ccc(NC(=O)CCl)cc1 [Compound 2c, 2-chloro-N-(4-ethynylphenyl)acetamide]
proteomic reactivity (proteins labeled) (Mino cells): enriching more proteins

SMILES: C#Cc1ccc(NC(=O)COS(=O)(=O)Nc2ccccc2)cc1 [Compound 2b, 2-((4-ethynylphenyl)amino)-2-oxoethyl Phenylsulfamate]
proteomic reactivity (proteins labeled) (Mino cells): low reactivity

SMILES: C#Cc1ccc(NC(=O)COS(=O)(=O)NCc2ccccc2)cc1 [Compound 2a, 2-((4-ethynylphenyl)amino)-2-oxoethyl Benzylsulfamate]
proteomic reactivity (proteins labeled) (Mino cells): enriching more proteins; also recorded: labeled a distinct protein that was not labeled by the chloroacetamide

SMILES: O=C(COS(=O)(=O)NCc1ccccc1)NCc1ccccc1 [Compound 1e, 2-(benzylamino)-2-oxoethyl Benzylsulfamate]
reactivity to GSH relative to chloroacetamide (1a) [1]: an order of magnitude less reactivity

SMILES: CC(C)(C)CN(C(=O)CCl)C1CCS(=O)(=O)C1 (centres unmarked) [Sulfopin, reference compound]
Ki (Pin1 [5]; [7]): 217 µM
metabolic stability [6]: good metabolic stability
competition ratio (H/L) of Pin1 Cys113 (Pin1 Cys113): highest competition ratio; also recorded: more complete target engagement
peptides labeled with an H/L ratio >2 (Pin1 Cys113): six
Pin1 labeling by intact protein MS (Pin1 [2]): 59%
hydrolysis in PBS buffer (FIG. 13) [4]: 30%
hydrolysis in PBS buffer [4]: 30%

Second part, led by results:

Pin1 labeling by intact protein MS (Pin1 [2]): > 95%
thiol reactivity relative to Sulfopin [3]: slightly higher reactivity
SMILES: O=C(COS(=O)(=O)Nc1ccccc1)N(CC1CCCCC1)C1CCS(=O)(=O)C1 (centres unmarked) [Compound 4g, 2-((cyclohexylmethyl)(1,1-dioxidotetrahydrothiophen-3-yl)amino)-2-oxoethyl Phenylsulfamate]

Pin1 labeling by intact protein MS (Pin1 [2]): 56%
thiol reactivity relative to Sulfopin [3]: lower thiol reactivity than Sulfopin
SMILES: CC(C)(C)CN(C(=O)COS(=O)(=O)NCc1ccccc1)C1CCS(=O)(=O)C1 (centres unmarked) [Compound 4c, 2-((1,1-dioxidotetrahydrothiophen-3-yl)(neopentyl)amino)-2-oxoethyl Benzylsulfamate]

thiol reactivity relative to Sulfopin [3]: lower thiol reactivity than Sulfopin
SMILES: CC(C)(C)CN(C(=O)COS(=O)(=O)Nc1ccc(Br)cc1)C1CCS(=O)(=O)C1 (centres unmarked) [Compound 4e, 2-((1,1-dioxidotetrahydrothiophen-3-yl)(neopentyl)amino)-2-oxoethyl (4-bromophenyl)sulfamate]

Pin1 labeling by intact protein MS (Pin1 [2]): 16%
SMILES: CNS(=O)(=O)OCC(=O)N(CC(C)(C)C)C1CCS(=O)(=O)C1 (centres unmarked) [Compound 4b, 2-((1,1-dioxidotetrahydrothiophen-3-yl)(neopentyl)amino)-2-oxoethyl Methylsulfamate]

Pin1 labeling by intact protein MS (Pin1 [2]): 18%
hydrolysis in PBS buffer (FIG. 13) [4]: 15%
hydrolysis in PBS buffer [4]: 15%
SMILES: CC(C)(C)CN(C(=O)COS(C)(=O)=O)C1CCS(=O)(=O)C1 (centres unmarked) [Compound 4a, 2-((1,1-dioxidotetrahydrothiophen-3-yl)(neopentyl)amino)-2-oxoethyl Methanesulfonate]

kinact (Pin1 [5]; [7]): 2.48
Ki (Pin1 [5]; [7]): 43.6 µM
competition ratio (H/L) of Pin1 Cys113 (Pin1 Cys113): highest competition ratio
peptides labeled with an H/L ratio >2 (Pin1 Cys113): six
thiol reactivity relative to Sulfopin [3]: lower thiol reactivity than Sulfopin
SMILES: CC(C)(C)CN(C(=O)COS(=O)(=O)Nc1ccccc1)C1CCS(=O)(=O)C1 (centres unmarked) [Compound 4d, 2-((1,1-dioxidotetrahydrothiophen-3-yl)(neopentyl)amino)-2-oxoethyl Phenylsulfamate]
binding affinity to Pin1 relative to sulfopin (Pin1 [5]; KI of 4d versus sulfopin): five-times better K1 value; also recorded: five-fold higher binding affinity
